# Laboratory results from patent publication US20040146520A1, “Materials and methods relating to immune suppression” (priority 2001, published 2004).
# Where a SMILES comes first, the peptide text is derived from it. The star is where a group is joined. Cbz = O=C(OCc1ccccc1)*; CH2F = FC*
# Columns and labels:
# CD8-associated p56lck = CD8-associated p56lck (Homo sapiens, UniProt P06239); conditions: cited from earlier work
# [1] = system: Flu-specific (MP58-66) CTL; experiment: CTL apoptosis induced by peptide/MHC multimeric beads; type: cell-based, human; conditions: IL-2 20 U/ml, anti-CD28 1 μg/ml, z-VAD 10 μM; 12 hrs
# A2+ B cell targets = experiment: Gag-specific CTL assay, apoptosis of peptide-pulsed targets (Annexin-V); conditions: peptide-pulsed BCL, 12-hour incubation, FIG. 1b
# CD8-associated p56lck, sequence (P06239 whole entry): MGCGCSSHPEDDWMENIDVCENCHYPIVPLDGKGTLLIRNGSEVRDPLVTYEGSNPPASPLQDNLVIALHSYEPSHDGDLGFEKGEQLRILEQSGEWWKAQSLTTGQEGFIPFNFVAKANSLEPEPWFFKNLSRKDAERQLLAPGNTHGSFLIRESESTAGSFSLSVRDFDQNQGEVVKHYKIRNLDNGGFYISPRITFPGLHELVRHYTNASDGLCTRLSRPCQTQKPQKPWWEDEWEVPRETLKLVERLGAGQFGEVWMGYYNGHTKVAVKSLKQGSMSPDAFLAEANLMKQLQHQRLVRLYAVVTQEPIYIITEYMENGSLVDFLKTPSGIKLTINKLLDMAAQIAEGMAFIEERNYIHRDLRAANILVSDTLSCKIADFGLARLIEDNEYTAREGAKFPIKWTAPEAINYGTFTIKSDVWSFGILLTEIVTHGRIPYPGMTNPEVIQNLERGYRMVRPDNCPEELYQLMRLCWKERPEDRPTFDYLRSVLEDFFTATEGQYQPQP
molecule,measurement,setting,value
CO[C@H]1[C@@H](OC)C[C@H](C)[C@@H](OC)C2=CC(=O)C=C(NC(=O)/C(C)=C/C=C\[C@H](OC)[C@@H](OC(N)=O)/C(C)=C/[C@@H]1C)C2=O [herbimycin A],effect on FasL-mediated cytotoxicity,CD8-associated p56lck,little effect
CC(NC(=O)C(NC(=O)OCc1ccccc1)C(C)C)C(=O)NC(CC(=O)O)C(=O)CF (stereo not drawn) [z-VAD] (Cbz-Val-Ala-Asp-CH2F; configuration not given here),effect of added reagent on multimer-induced CTL death,[1],blocked
SLFNTVATL [Mutant 3F],"target cell death, gag variant peptides",A2+ B cell targets,sensitising
